Measured values from US5527811A, “Isoquinolinyl compounds which are useful in treating cerebral vascular disorders” (Takeda Chemical Industries, Ltd., priority 1993, dated 1996).
Like-named read-outs stand apart in the source and are kept apart here.

How the values were obtained:
[1] = test system: transient cerebral ischemia in mongolian gerbils; test: Protective effect of cerebralischemia: survival ratio after bilateral common carotid occlusion and reperfusion in gerbils; format: in vivo, mongolian gerbil; conditions: Meriones unguiculatus; 5 mg/kg, ip; 30 min before occlusion and 90 min after reperfusion; estimated 8 hr after reperfusion; control 0; read-out: Survival ratio
Description: Test Example 1 Protective effect of cerebralischemia
Male mongolian gerbils (Seiwa/8-10 wks) (n=8-10) were used. Bilateral common carotid arteries were occluded after the incision of the center of the neck under ether anesthesia. Global cerebral ischemia was induced by the occlusion of bilateral common carotid arteries (15 minutes), and after that these arteries were reperfused. Test sample was administered intraperiatonelly 30 minutes before occlusion and 90 minutes after reperfusion. In the control group, vehicle (distilled water, saline or 5% gum arabic) was administered in the same fashion. Survival ratio was estimated at 8 hr after reperfusion (Table 2).

[2] = test system: brain edema in male wistar rats; test: Anti-brain edema effect (middle cerebral arterial occlusion and reperfusion model); format: in vivo, rat (wistar); conditions: 10 mg/kg(ip) × 7, rat, 3rd day after reperfusion, * p < 0.05
Text: Test Example 2 Anti-brain edema effect (middle cerebral arterial occlusion and reperfusion model)
Male wistar rats (Jcl:9wks) were anesthetized with inhalation of halothane (2-bromo-2-chloro-1,1,1-trifluoroethane). After the incision of neck, bilateral common carotid arteries were […] an embolized needle (diameter 0.3 mm, length 26 mm nylon thread) was inserted into the left internal carotid artery through external carotid artery and, simultaneously, the bilateral common carotid arteries were occluded by the Sugita's aneurysm clips. The embolized needle and the clips were removed out 30 minutes after occlusion. Test sample was administered immediately and 5 hr after reperfusion on the operated day, twice a day on the 1st and 2nd day, and 1 hr before removing the brain on the 3rd day (total 7 times), intraperiatonelly. In the control group, vehicle (distilled water, saline or 5% gum arabic) was administered in the same fasion. Brain edema on the 3rd day after reperfusion was estimated from the content of water, potassium and sodium in cerebral cortex and striatum. Water content was calculated from the ratio of dried brain weight and wet brain weight [(1-dried weight/wet weight)×100%]. The contents of pottasium and sodium were measured using the solution extracted from dried brain tissue with 14% nitric acid by the method of the framephotometer (Table 3).

[3] = test system: cytosolic free Ca^2+ in hippocampal neurons; test: Effect on cytosolic free Ca^2+ concentration in neurons (L-glutamic acid-induced [Ca^2+]i increase, fura-2); format: cell-based; conditions: Rattus norvegicus, Hippocampal neuron, L-Glu.-induced [Ca^2+]i increase
Description: Effect on cytosolic free Ca^2+ concentration in neurons
Neurons were harvested from hippocampi of 18-day-old rat embryos and cultured based on the method of Hatanaka and Tsukui (Developmental Brain Research, 30, 47-56, 1986). Hippocampal neurons suspended in Dulbecco's modified Eagle's medium were seeded on cover glass slides (10×20 mm, Matunami No. 1, Osaka, Japan) coated with poly-L-lysin at a density of 2.5×10^5 cells/slide and cultured for 7 days in humidified CO2 incubator (95% air/5% CO2) at 37° C. The neurons were washed 3 times with HEPES [N-(2-hydroxyethyl)piperazine-N'-2-ethanesulfonic acid]-buffered physiological salt solution (PSS) (140 mM NaCl, 5 mM KCl, 1 mMMgSO4, 1 mM Na2 HPO4, 1 mM CaCl2, 25 mM glucose, 25 mM HEPES, pH7.4), and then loaded with fura-2 acetoxymethyl ester (4 μM) in HEPES-buffered PSS for 60 min at 37° C. The cover glass slide coated with neurons, which were loaded with fura-2, was inserted into a cuvette that contained 2.5 ml HEPES-buffered PSS supplemented with 0.05% bovine serum albumin. Ca2+ -fura-2 fluorescence was measured with Hitachi F-2000 spectrofluorimeter by 340 nm and 380 nm for excitation and 505 nm for emission. Cytosolic free Ca^2+ concentration ([Ca^2+ ]i) values were calculated according to the method of Grynkiewicz et. al, (Journal of Biological Chemistry, 260, 3440-3450, 1985). Neurons were treated with example-compounds 5 min before the addition of L-glutamic acid (L-Glu.).
L-Glu. leads to two phases-increase of [Ca^2+ ]i in neurons. The first increase of [Ca^2+ ]i is caused by the release from cellular Ca^2+ stores and the influx of extracellular Ca^2+. The second one is caused by the influx of extracellular Ca^2+. The effect of the drug on these two phases-increase of [Ca^2+ ]i was examined and the 50% inhibitory dose (IC50) was calculated.

[4] = target: T1, substance P receptor from human lymphoblast cells (IM-9) (Homo sapiens, UniProt P25103); test: Radioligand receptor binding inhibitory assay using receptor from human lymphoblast cells (IM-9), 125I-BHSP; conditions: 25° C., 30 minutes, pH 7.4
T1 construct: The receptor was prepared from human lymphoblast cells (IM-9); endogenous in cells; host or cells: IM-9 human lymphoblast cells (washed membrane preparation)
Description: Radioligand receptor binding inhibitory assay using receptor from human lymphoblast cells (IM-9)
The method of "A. Margaret et al. Molecular Pharmacology 42, 458 (1992)" was modified and used. The receptor was prepared from human lymphoblast cells (IM-9). IM-9 cells were grown in 175 cm^2 tissue culture flasks (100 ml z 10) at a density approximately 2×10^5 /ml of RPMI 1640 with L-glutamine, 10% (V/V) heat inactivated fetal calf serum, penicillin (100 u/ml), and streptomycin (100 μg/ml) at 37° C. in 5%CO2 /95% air for 3 days. IM-9 cells were obtained by centrifugation at 500 Xg for 5 minutes at 5° C. The pellet obtained was washed once with phosphate buffer (Flow Laboratories, CAT No. 28-103-05), homogenized using Polytron homogenizer (Kinematika, Germany) in 30 ml of 50 mM Tris-HCl buffer containing 120 mM NaCl, 5 mM KCl, 2 μg/ml phenylmethyl sufonyl fluoride, and 1 mM ethylenediamine tetra-acetic acid and then centrifuged at 40,000 Xg for 20 minutes. The residue was washed twice with 30 ml of buffer described above, and preserved frozen (-80° C.).
The above specimen was suspended in a reaction buffer (50 mM Tris-HCl buffer (pH 7.4), 0.02% bovine serum albumin, 1 mM phenylmethylsufonyl fluoride, 2 μg/ml chymostatin, 40 μg/ml bacitracin, 3 mM manganese chloride) at a protein concentration of 1.5 mg/ml and a 100 μl portion of the suspension was used in the reaction. After addition of the sample and 125I-BHSP (0.46 KBq), the reaction was conducted in 0.2 ml of reaction buffer at 25° C. for 30 minutes. The amount of nonspecific binding was determined by adding substance P at a final concentration of […]. After the reaction, using a cell harvester (290PHD, Cambridge Technology, Inc., England), rapid filtration was carried out through a glass filter (GF/B, Whatman, U.S.A.) to stop the reaction. After washing three times with 250 μl of 50 mM Tris-HCl buffer (pH 7.4) containing 0.02% bovine serum albumin, the radioactivity remaining on the filter was measured with a gamma counter. Before use, the filter was immersed in 0.1% polyethyleneimine for 24 hours and air-dried. […]

T1 sequence (P25103 whole entry): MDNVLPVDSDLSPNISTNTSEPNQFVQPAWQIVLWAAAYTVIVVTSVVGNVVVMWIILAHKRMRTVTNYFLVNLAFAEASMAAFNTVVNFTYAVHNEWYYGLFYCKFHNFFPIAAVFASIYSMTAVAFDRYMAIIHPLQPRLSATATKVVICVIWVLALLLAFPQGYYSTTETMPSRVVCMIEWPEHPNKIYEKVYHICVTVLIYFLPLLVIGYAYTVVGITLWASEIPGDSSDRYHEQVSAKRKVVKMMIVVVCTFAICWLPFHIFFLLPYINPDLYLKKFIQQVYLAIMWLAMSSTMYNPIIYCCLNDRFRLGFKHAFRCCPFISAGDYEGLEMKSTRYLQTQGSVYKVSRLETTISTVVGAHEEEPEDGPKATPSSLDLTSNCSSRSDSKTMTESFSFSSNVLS

## CC(C)Oc1cccc(NC(=O)NCc2c(-c3ccccc3)c3cc(Cl)ccc3c(=O)n2C)c1 [Example 1, N-[(6-Chloro-1,2-dihydro-2-methyl-1-oxo-4-phenylisoquinolin-3-yl)methyl]-N'-(3isopropoxyphenyl)urea]
[1]
  responders at 5 mg/kg: 88%
[2]; control 81.27 (Example 1), 80.94 (Example 15(HCl))
  H2O (water content of brain): 80.12 ± 0.32%
[2]; control 405 (Example 1), 371 (Example 15(HCl))
  Na (sodium content of brain): 322 ± 24 mEq/kg
[2]; control 430 (Example 1), 440 (Example 15(HCl))
  K (potassium content of brain): 471 ± 13 mEq/kg
[3]; with EGTA, 1st phase (release from cellular Ca^2+ stores), read-out: IC50 with EGTA, 1st Phase
  IC50: 69 nM
[3]; without EGTA, 1st phase, read-out: IC50 without EGTA, 1st Phase
  IC50: 3000 nM
[3]; without EGTA, 2nd phase, read-out: IC50 without EGTA, 2nd Phase
  IC50: > 10000 nM

## Cc1cc2c(-c3ccccc3)c(CN(C)C(=O)c3cc(C(F)(F)F)cc(C(F)(F)F)c3)n(C)c(=O)c2cc1C [Example 36, 3,5-Bis(trifluoromethyl)-N-[(1,2-dihydro-2,6,7-trimethyl-1-oxo-4-phenylisoquinolin-3-yl)methyl]-N-methylbenzamide]
[4]
  IC50: 47 nM

## CN(Cc1c(-c2ccccc2)c2ccccc2c(=O)n1C)C(=O)c1cc(C(F)(F)F)cc(C(F)(F)F)c1 [Example 37, 3,5-Bis(trifluoromethyl)-N-[(1,2-dihydro-2-methyl-1-oxo-4-phenylisoquinolin-3-yl)methyl]-N-methyl benzamide]
[4]
  IC50: 1 nM

## CN(Cc1c(-c2ccccc2)c2cc(Cl)ccc2c(=O)n1C)C(=O)c1cc(C(F)(F)F)cc(C(F)(F)F)c1 [Example 38, 3,5-Bis(trifluoromethyl)-N-[(6-chloro-1,2-dihydro-2-methyl-1-oxo-4-phenylisoquinolin-3-yl)methyl]-N-methylbenzamide]
[4]
  IC50: 72 nM
